Where two headings read alike, the source gives them in different places.
Tests used:
[1] = set-up: method as in PMID 30768270; settings: human liver microsome; cited from earlier work
MKK7 [2] = settings: read-out: in vitro IC50; cited from earlier work
p-JNK = test system: p-JNK; set-up: method as in PMID 30768270; settings: read-out: EC50 in cells; cited from earlier work
MKK7 [3] = molecular target: T1, MKK7 (Homo sapiens, UniProt O14733); experiment: Intact protein LC/MS labeling of recombinant MKK7; settings: 2 μM compound, 2 μM protein, 5 μM ATP, 5 mM MgCl2, 10 min, 4 °C
T1 sequence (O14733 117-419 limits assumed): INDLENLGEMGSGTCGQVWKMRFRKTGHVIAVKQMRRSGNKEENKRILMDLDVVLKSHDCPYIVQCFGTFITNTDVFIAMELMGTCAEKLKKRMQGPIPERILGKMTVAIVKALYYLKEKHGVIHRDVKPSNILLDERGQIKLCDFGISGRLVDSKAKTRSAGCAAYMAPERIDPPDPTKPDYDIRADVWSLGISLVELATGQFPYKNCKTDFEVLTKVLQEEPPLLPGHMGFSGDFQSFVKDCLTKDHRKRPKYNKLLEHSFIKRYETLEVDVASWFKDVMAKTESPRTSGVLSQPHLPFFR

[4] = test system: phosphorylated c-Jun (p-c-Jun) in U2OS cells; experiment: Dose-response western blot of c-Jun phosphorylation in sorbitol-treated U2OS cells; assay type: cell-based; settings: sorbitol 0.2 M, read-out: cellular EC50, c-Jun phosphorylation inhibition
Description: U2OS cells were incubated a day before the experiment in a six-well plate. On the day of the experiment, the cells underwent media change and were incubated with the compound containing 0.1% DMSO, or DMSO only, for 80 min. Sorbitol was then added to the concentration of 0.2 M for 40 min, except for an “untreated” well. After 40 min, the cells were harvested using Trypsin B and were washed with ice-cold PBS. The cells were lysed using a mixture of 50 μL of RIPA buffer (Sigma; R0278) and a protease inhibitor (Sigma; P8340) for 20 min, in which every 5 min, the cells undergo a 5 s vortex. After 20 min, cell lysates underwent a 20 min centrifuge at 4 °C at 21,000 rpm. The lysates were then separated from the cell membrane remains. Protein concentration was determined by the BCA analysis, and 35 μg of protein was taken from each sample, supplemented with 4× loading buffer that has 0.02 mM DTT, and heated for 10 min at 70 °C. […] The membrane was washed again with TBS-T three times for 10 min and reincubated with the blocking buffer for 30 min. […] The protocol repeats itself, using an anti-mouse HRP secondary antibody instead.
Quantification was done using ImageJ software.

MKK7 [5] = molecular target: T2, MKK7 (Homo sapiens, UniProt O14733); experiment: In vitro kinase activity assay (Nanosyn), MKK7 coupled with inactive JNK1; assay type: biochemical; settings: MKK7 1 nM, 2 h preincubation, 2 μM ATP
T2 construct: purchased Nanosyn, Santa Clara, CA (assay service)
T2 sequence (O14733 1-419): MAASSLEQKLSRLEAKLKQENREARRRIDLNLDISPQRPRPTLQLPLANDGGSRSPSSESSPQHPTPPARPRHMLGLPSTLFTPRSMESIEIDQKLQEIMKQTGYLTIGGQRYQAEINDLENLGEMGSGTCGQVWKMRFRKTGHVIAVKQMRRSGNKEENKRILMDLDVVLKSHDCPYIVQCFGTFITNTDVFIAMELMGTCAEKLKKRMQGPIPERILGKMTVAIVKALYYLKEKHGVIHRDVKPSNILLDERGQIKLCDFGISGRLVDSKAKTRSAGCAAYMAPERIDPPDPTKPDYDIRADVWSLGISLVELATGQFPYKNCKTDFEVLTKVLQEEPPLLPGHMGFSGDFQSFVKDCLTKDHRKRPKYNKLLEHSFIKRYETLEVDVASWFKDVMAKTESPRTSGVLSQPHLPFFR

JNK = molecular target: T3, JNK (Homo sapiens, UniProt P45983); experiment: Coupled JNK/MKK7 in vitro kinase activity assay, second phase of biphasic curve; assay type: biochemical; settings: second sigmoid of biphasic curve, higher concentrations
T3 construct: purchased Nanosyn, Santa Clara, CA (assay service)
T3 sequence (P45983 whole entry): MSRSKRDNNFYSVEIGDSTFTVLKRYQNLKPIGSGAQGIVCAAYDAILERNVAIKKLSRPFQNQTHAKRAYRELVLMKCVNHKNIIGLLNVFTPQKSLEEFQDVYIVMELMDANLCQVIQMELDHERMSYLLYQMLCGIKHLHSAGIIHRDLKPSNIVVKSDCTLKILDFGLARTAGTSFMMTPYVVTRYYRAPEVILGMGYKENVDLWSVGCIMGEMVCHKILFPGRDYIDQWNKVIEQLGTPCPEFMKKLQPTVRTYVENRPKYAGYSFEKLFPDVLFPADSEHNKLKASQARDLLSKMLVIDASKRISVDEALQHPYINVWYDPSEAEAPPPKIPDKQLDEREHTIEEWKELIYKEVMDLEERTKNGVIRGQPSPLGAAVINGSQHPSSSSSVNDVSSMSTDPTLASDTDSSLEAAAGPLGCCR
Description: Test compounds were diluted in DMSO to a final concentration that ranged from 10 μM to 0.0565 nM, while the final concentration of DMSO in all assays was kept at 1%. The reference compound, Staurosporine, was tested in a similar manner as a positive control. […] After incubation (17 h), the activity of JNK1 activated by MKK7 was tested in the presence of 30 μM ATP.
Figure S11. A model of compound 1e based on the co-crystal structure of MKK7 in complex with
Note that the side-chains were not remodeled and may in fact adopt
a rotamer that places closer to the hydroxy moiety.
Figure S12. Biphasic in vitro kinase inhibition behavior by alkyne 2. In a coupled JNK/ MKK7 in
Each sigmoidal curve can be
(1 picture or pasted object on this page, not shown here)

[6] = set-up: method as in PMID 30768270; settings: PAMPA; cited from earlier work

Row | SMILES | EC50 ([4]; Homo sapiens, U2OS) [nM] | IC50 (MKK7 [5]) [nM] | further results
1 | C=CC(=O)N1CCC[C@@H](n2nc(-c3cn(-c4ccc(C(C)=O)cc4)nn3)c3c(N)ncnc32)C1 [1g] | – | – | CL HLM [1]: 0.154 µL/min/mg; IC50 (MKK7 [2]): 10 nM; EC50 (p-JNK): ~400 nM; % MKK7 labeling (MKK7 [3]): 89%
2 | C=CC(=O)N1CCC[C@@H](n2nc(-c3cn(CC(F)(F)c4ccccc4)nn3)c3c(N)ncnc32)C1 [1k, (R)-1-(3-(4-Amino-3-(1-(2,2-difluoro-2-phenylethyl)-1H-1,2,3-triazol-4-yl)-1H-pyrazolo[3,4-d]pyrimidin-1-yl)piperidin-1-yl)prop-2-en-1-one] | 265 | 4 | –
3 | C=CC(=O)N1CCC[C@@H](n2nc(-c3cn(-c4ccc(Cl)cc4O)nn3)c3c(N)ncnc32)C1 [1d, (R)-1-(3-(4-Amino-3-(1-(4-chloro-2-hydroxyphenyl)-1H-1,2,3-triazol-4-yl)-1H-pyrazolo[3,4-d]pyrimidin-1-yl)piperidin-1-yl)prop-2-en-1-one] | 1090 | – | –
4 | C=CC(=O)N1CCC[C@@H](n2nc(-c3cn(C[C@H](O)c4ccc(Br)cc4)nn3)c3c(N)ncnc32)C1 [1e, 1-((R)-3-(4-Amino-3-(1-((R)-2-(4-bromophenyl)-2-hydroxy-ethyl)-1H-1,2,3-triazol-4-yl)-1H-pyrazolo[3,4-d]pyrimidin-1-yl)piperidin-1-yl)prop-2-en-1-one] | > 500 | – | –
5 | C#Cc1nn([C@@H]2CCCN(C(=O)C=C)C2)c2ncnc(N)c12 [compound 1] | > 10000 | 30 | –
6 | C#CCNC(=O)c1cc(NC(=O)C=C)cc(-c2n[nH]c3ccccc23)c1 [compound 2, 3-Acrylamido-5-(1H-indazol-3-yl)-N-(prop-2-yn-1-yl)benzamide] | < 100 | 0.6 | IC50 (JNK): 1970 nM; % MKK7 labeling (MKK7 [3]): 100%
7 | C=CC(=O)N1CCC[C@@H](n2nc(-c3ccc(Oc4ccccc4)cc3)c3c(N)ncnc32)C1 [ibrutinib] | – | – | permeability [6]: 38 %flux
8 | C=CC(=O)Nc1cc(C(=O)NCc2cn(CCOC)nn2)cc(-c2n[nH]c3ccccc23)c1 [2d, 3-Acrylamido-5-(1H-indazol-3-yl)-N-((1-(2-methoxyethyl)-1H-1,2,3-triazol-4-yl)methyl)benzamide] | – | – | % MKK7 labeling (MKK7 [3]): 100%

Further lines, with some results ahead:

Row | EC50 ([4]; Homo sapiens, U2OS) [nM] | IC50 (MKK7 [5]) [nM] | SMILES | further results
9 | > 5000 | – | C=CC(=O)Nc1cc(C(=O)NCc2cn(C3CCC3)nn2)cc(-c2n[nH]c3ccccc23)c1 [2c, 3-Acrylamido-N-((1-cyclobutyl-1H-1,2,3-triazol-4-yl)methyl)-5-(1H-indazol-3-yl)benzamide] | –
10 | > 10000 | 30 | C=CC(=O)Nc1cc(C(=O)NCc2cn([C@@H]3CCCC[C@H]3OC)nn2)cc(-c2n[nH]c3ccccc23)c1 [2a, rac-3-Acrylamido-5-(1H-indazol-3-yl)-N-((1-((trans-)-2-methoxycyclohexyl)-1H-1,2,3-triazol-4-yl)methyl)benzamide] | –
11 | ~3000 | – | C=CC(=O)Nc1cc(C(=O)NCc2cn(-c3ccccc3C)nn2)cc(-c2n[nH]c3ccccc23)c1 [2b, 3-Acrylamido-5-(1H-indazol-3-yl)-N-((1-(o-tolyl)-1H-1,2,3-triazol-4-yl)methyl)benzamide] | EC50 [4]: < 3000 nM
